Laboratory results published in paper PMC12305496, “Bilosomal Encapsulation of Binuclear Phosphino Ru(II)–Cu(II) Compounds Enhances Their Selectivity and Activity toward Lung and Prostate Cancers” (Journal of Medicinal Chemistry, 2025).

Assays:
Format in all cases: cell-based, human
[1] = test system: BAX and BCL-2 genes' expression; assay: RT-qPCR of BAX and BCL-2 gene expression in A549 cells; conditions: mRNA, control = 1
Procedure: In this study, using Reverse transcription (RT)-quantitative real-time PCR (RT-qPCR), we analyzed whether the expression ratio of Bax to Bcl-2 mRNA correlates with apoptosis or the proliferative activity of cancer cells. −
For this purpose, total RNA was isolated using the Total RNA Mini Plus kit (A&A Biotechnology, Gdansk, Poland) following the manufacturer’s instructions. A total of 1 μg of RNA was subjected to RT into complementary DNA (cDNA) using oligo­(dT)­18 and the TranScriba Kit (A&A Biotechnology, Gdansk, Poland). The qRT-PCR experiments were performed with the Sensitive RT HS-PCR Mix (A&A Biotechnology, Gdansk, Poland) on a real-time PCR thermal cycler from Bio-Rad. The TaqMan primers used in this study were obtained from Thermo Fisher Scientific/Invitrogen, specifically Bax (Hs00180269_m1), Bcl-2 (Hs04986394_s1), and GAPDH (4352932E). The relative transcript quantification was carried out using the 2^–ΔΔCt method with GAPDH as the reference gene.

HEK293T cells = assay: MTT cytotoxicity assay, HEK293T
Procedure: (§4) Primary screening of the antiproliferative activity of the heteronuclear Ru­(II)–Cu­(II) complexes was performed by the commonly used MTT assay on four human cancer cell lines: MCF-7 (breast), A549 (lung adenocarcinoma), DU145 (prostate), and PANC-1 (pancreatic). In addition, normal human embryonic kidney (HEK293T) and human keratinocyte (HaCaT) cell lines were used as controls to assess the toxicity of these complexes. The IC50 values (the concentration that causes 50% inhibition of cell proliferation) examined for compounds are compared to those obtained for clinically used cisplatin (CDDP) under the same experimental conditions.
(§5) The MCF7 cell line (human breast adenocarcinoma; morphology: epithelial-like, ATCC: HTB-22), A549 cell line (human lung adenocarcinoma, morphology: epithelial, ATCC: CCL-185), PANC-1 (human pancreatic/duct carcinoma, morphology: epithelial, ATCC: CRL-1469), and HaCaT (human keratinocyte, ATCC PCS-200-011) were cultured in DMEM (Corning), supplemented with 10% fetal bovine serum (FBS) and with 1% streptomycin/penicillin. The DU145 cell line (human prostate carcinoma) and HEK293T and HEK293 cell line (human embryonic kidney) were cultured in minimum essential medium (MEM, Corning) with 10% FBS. Cultures were incubated at 37 °C under a humidified atmosphere containing 5% CO2. Cells were passaged using a solution containing 0.05% trypsin and 0.5 mM EDTA. All media and other ingredients were purchased from ALAB­(Poland) or Thermo Fisher Scientific (USA).
(§6) Since most of the studied compounds are insoluble in aqueous media, they needed to be predissolved in DMSO for biological evaluation. DMSO was used in cell cultures at a concentration below 0.1% (v/v) to minimize its cytotoxicity and changes in gene expression. Cytotoxicity of the studied compounds was assessed using an MTT assay performed according to the protocols described previously. […] After that time, solutions of compounds were washed out, cells were then washed three times with PBS (1X), and a fresh medium was applied. Each compound concentration was tested in five replicates and repeated at least three times. Determined values of IC50 (concentration of a drug required to inhibit the growth of 50% of the cells) are given as mean ± SD. […] IC50 values were determined, after 72 h, from the plots of cell viability in the presence of various concentrations of each compound by matching the dose–response curves.

DU145 cells [2] = assay: PrestoBlue HS cell viability assay, DU145; conditions: 24 h, dissolved in 0.9% NaCl
Procedure: (§1) Primary screening of the antiproliferative activity of the heteronuclear Ru(II)–Cu(II) complexes was performed by the commonly used MTT assay on four human cancer cell lines: MCF-7 (breast), A549 (lung adenocarcinoma), DU145 (prostate), and PANC-1 (pancreatic). In addition, normal human embryonic kidney (HEK293T) and human keratinocyte (HaCaT) cell lines were used as controls to assess the toxicity of these complexes. […] To verify whether the use of DMSO as a solvent influenced the cytotoxic activity of CDDP, we performed additional experiments (Figure S29) with CDDP (Sigma-Aldrich) dissolved in 0.9% NaCl as per the manufacturer’s recommendation. […]
(§2) Additionally, the viability of A549 and DU145 cell lines, as well as the control cell line HEK293, upon CDDP in 0.9% NaCl, was assessed using the resazurin-based PrestoBlue HS Cell Viability assay, according to the manufacturer’s protocol. […] Results were recorded using fluorescence (excitation 560 nm, emission 590 nm) and absorbance (570 nm), with fluorescence values calculated further using GraphPad Prism software, v. […]
(§3) Figure S29. […] Cells were incubated with varying concentrations of CDDP for 24 h and cell viability was measured by fluorescence intensity (excitation 560 nm, emission 590 nm). […]

DU145 cells [3] = assay: MTT cytotoxicity assay, DU145
Procedure: as §4, §5, §6

MCF7 cells = assay: MTT cytotoxicity assay, MCF7
Description: The IC50 values (the concentration that causes 50% inhibition of cell proliferation) examined for compounds are compared to those obtained for clinically used cisplatin (CDDP) under the same experimental conditions.
The MCF7 cell line (human breast adenocarcinoma; morphology: epithelial-like, ATCC: HTB-22), A549 cell line (human lung adenocarcinoma, morphology: epithelial, ATCC: CCL-185), PANC-1 (human pancreatic/duct carcinoma, morphology: epithelial, ATCC: CRL-1469), and HaCaT (human keratinocyte, ATCC PCS-200-011) were cultured in DMEM (Corning), supplemented with 10% fetal bovine serum (FBS) and with 1% streptomycin/penicillin. […] Cultures were incubated at 37 °C under a humidified atmosphere containing 5% CO2. Cells were passaged using a solution containing 0.05% trypsin and 0.5 mM EDTA.
as §6

PANC-1 cells = assay: MTT cytotoxicity assay, PANC-1
Procedure: as §4, §5, §6

A549 cells [4] = assay: PrestoBlue HS cell viability assay, A549; conditions: 24 h, dissolved in 0.9% NaCl
Procedure: as §1, §2, §3

A549 cells [5] = assay: MTT cytotoxicity assay, A549
Procedure: as §4, §5, §6

HEK293 cells = assay: PrestoBlue HS cell viability assay, HEK293; conditions: 24 h, dissolved in 0.9% NaCl
Procedure: as §1, §2, §3

HaCaT cells = assay: MTT cytotoxicity assay, HaCaT
Procedure: as §4, §5, §6

A549 cells [6] = assay: Cell cycle analysis by flow cytometry; conditions: A549, 5 μM, 24 h
Procedure: Before treatment, cells were synchronized, and the compounds were applied at various concentrations.
The A549 and DU145 cells (3 × 10^5/well) were seeded in 12-well plates and treated with various concentrations of the examined complexes and CDDP for 24 h. Synchronization of A549 and DU145 cell cultures was performed by serum starvation. Serum starvation is widely used for synchronizing donor cells by arresting them in the G 0/G 1 phase of the cell cycle. Cell cultures were seeded and incubated in growth medium with 20% FBS overnight to synchronize the cell cultures. Then, the cultures were rinsed with PBS (1×) and changed to a serum-free medium. After serum starvation for 18 h, the cells were passaged and released into the cell cycle by the addition of the serum. Then cells were treated with the examined compounds and CDDP for 24 h. For FACS analysis, cell samples were harvested with trypsinization and stained with propidium iodide (20 μg/mL). Cell cycle phase distributions were analyzed by flow cytometry (BD Bioscience). Experiments were reaped at least three times.

[7] = 24 h, Table 2 (bilosome comparison)
[8] = 72 h (24 h + 48 h regeneration)
[9] = 24 h treatment, DMSO predissolved

| Molecule | Bax/Bcl-2 ratio [1] | IC50 (HEK293T cells; [7]) [µM] | IC50 (HEK293T cells; 24 h treatment) [µM] | IC50 (HEK293T cells; [8]) [µM] | IC50 (DU145 cells [3]; [7]) [µM] | IC50 (DU145 cells [3]; [9]) [µM] | IC50 (DU145 cells [3]; [8]) [µM] | IC50 (MCF7 cells; 24 h treatment) [µM] | IC50 (PANC-1 cells; 24 h treatment) [µM] | IC50 (PANC-1 cells; [8]) [µM] | IC50 (A549 cells [5]; [9]) [µM] | IC50 (A549 cells [5]; [8]) [µM] | IC50 (HaCaT cells; [7]) [µM] | IC50 (HaCaT cells; 24 h treatment) [µM] | IC50 (HaCaT cells; [8]) [µM] | effect on cell cycle (A549 cells [6]) | other results |
| --- | --- | --- | --- | --- | --- | --- | --- | --- | --- | --- | --- | --- | --- | --- | --- | --- | --- |
| [NH2][Pt]([NH2])([Cl])[Cl] [CDDP, cisplatin, reference compound] | 4.56 | 21 ± 1.6 | 21 ± 1.81 | 10.3 ± 2.15 | 68.3 ± 1.3 | 68.3 ± 1.35 | 65.5 ± 3.61 | 51.9 ± 4.61 | 95.6 ± 2.61 | 76.6 ± 1.68 | 57 ± 1.3 | 71.7 ± 3.7 | 43.3 ± 1.1 | 43.3 ± 1.1 | 17.3 ± 3.1 |  | IC50 (DU145 cells [2]): 101 µM; IC50 (MCF7 cells; [8]): 17.7 ± 8.6 µM; IC50 (A549 cells [4]): 51.9 µM; IC50 (A549 cells [5]; [7]): 57 ± 1.3 µM; IC50 (HEK293 cells): 87 µM |
| [Ru(η^6-p-cymene)Cl2Pcfx-Cu(phen)](NO3) [RuPCpCu] | 6.4 | 644 ± 13.1 | 644 ± 13.1 | 796 ± 8.9 | 31 ± 1.05 | 31 ± 1.05 | 15 ± 0.44 | 25 ± 0.91 | 25.9 ± 0.01 | 21.7 ± 1.02 | 44.4 ± 0.78 | 12.6 ± 0.83 | 935 ± 9.3 | 935 ± 9.3 | 834 ± 11.9 | induced cell cycle arrest in the S phase |  |
| [Ru(η^6-p-cymene)Cl2Plfx-Cu(phen)](NO3) [RuPLmCu] |  |  | 634 ± 9.1 | 782 ± 14.2 |  | 18.9 ± 1.21 | 12.7 ± 0.92 | 26.7 ± 2.82 | 28.3 ± 0.71 | 22.7 ± 1.03 | 42.6 ± 0.68 | 24.3 ± 0.91 |  | 936 ± 10.1 | 833 ± 12.2 |  |  |
| [Ru(η^6-p-cymene)Cl2Pnfx-Cu(phen)](NO3) [RuPNrCu] |  |  | 677 ± 12.7 | 798 ± 14.8 |  | 14.5 ± 1.04 | 14.9 ± 0.23 | 24.7 ± 1.95 | 29.5 ± 0.81 | 23.1 ± 1.09 | 48.1 ± 0.06 | 18.8 ± 3.4 |  | > 1000 | 873 ± 18.8 |  |  |
| [Ru(η^6-p-cymene)Cl2Psfx-Cu(phen)] [RuPSfCu] |  |  | 546 ± 11.2 | 695 ± 14.2 |  | 16 ± 0.05 | 13.5 ± 0.35 | 17.7 ± 0.93 | 27.2 ± 0.86 | 22.1 ± 0.68 | 41.1 ± 0.7 | 25.4 ± 1.66 |  | > 1000 | 741 ± 13.2 | induced cell cycle arrest in the S phase |  |
